# Assay results reported in US20130053434A1, “IRREVERSIBLE INHIBITORS USEFUL FOR THE TREATMENT OF KINASE-RELATED PATHOLOGIES” (CENTRE NATIONAL DE LA RECHERCHE SCIENTIFIQUE, priority 2009, published 2013).
# Assays:
# [1] = plasma half-life; type: in vitro ADME
# [2] = system: RENCA-LN cells; assay: RENCA cell proliferation assay; type: cell-based, Murine
# Experimental: Murine RENCA cells were originally obtained from a tumor that arose spontaneously in the kidney of BALB/c mice. Histologically, RENCA consists of granular cell type adenocarcinoma, which is pleomorphic with large nuclei. To obtain RENCA-LN, RENCA cells were transduced using a retrovirus encoding a luciferase-neomycin fusion protein and selected using 1 mg/ml G418. RENCA-LN cells were plated with 1.500 cells/150 μl/well in DMEM supplemented with 10% FCS in 96 well culture dishes. The following day the serial diluted test samples (from 1 mM to 0.1 μM in DMSO) were mixed with medium (1:25) and 50 μl of the mix was added to each well of the cultured cells (1:4) resulting in a final DMSO concentration of 1%. Cells were grown for 72 h at 10% CO2 and 37° C. After 72 h RENCA-LC cells were lysed in 100 μL luciferase assay buffer, and 10 μl of the lysate was assayed for luciferase activity. The mean value of the low controls of each 96 well cell culture plate represents the background which was subtracted from all other data points of the respective plate. Raw data were converted into percent proliferation relative to the high control, which were set to 100%. […] determination was done with GraphPad Prism 5.01 software with constrain of bottom to 0 and top to 100 using a nonlinear regression curve fit with variable hill slope. The equation is a four-parameter logistic equation. […]
# [3] = system: VEGFRs; assay: KinomeScan kinase selectivity profile (50 kinases): VEGFRs; type: binding; conditions: 1 μM
# Source text: The selectivity profile was measure using the KinomeScan™ technology (http://www.kinomescan.com/) based on active-site dependent competition binding assay (Karaman, M. W., et al. (2008) Nat. Biotechnol. 26, 127-32; Fabian, M. A., et al. (2005) Nat. Biotechnol. 23, 329-36). Compounds 3 and 5 were profiled against a panel of 50 kinases including 42 kinases from the group of 48 kinases predicted by Santi et al. (Schirmer, A., et al. (2006) Proc. Natl. Acad. Sci. USA 103, 4234-9) to be targeted by hypothemycin and 5 mutants of FLT3 as well as 3 mutants of KIT. Both compounds were assayed at 1 μM. The results are expressed as a percentage of signal between a negative (DMSO) and positive (know binder) control [(test compound−positive control)/([…])×100].
# [4] = dose finding study; type: in vivo
# Source text: (§1) As a bench mark, the natural product LL Z-1640-2 was also included in the assay. […] Compound 3 and 5 were selected as prototypical examples of modified RALs for further investigations. As described in the method section, both of these compounds derived from a common synthetic intermediate and can be readily prepared in gram quantities. […] Primary tumor weight confirmed these observations. A key objective of this study was to measure the effect of these compounds on metastasis. Upon termination of the study, the lungs were inspected for metastatic nodules and the ex-vivo luciferase activity of lung homogenates was measured. […] It should be noted that these compounds were also shown to inhibit the inflammation pathways which have been implicated in facilitating metastasis.
# [5] = system: orthotopically implanted RENCA-LN cells; assay: orthotopic murine renal cell carcinoma (RENCA) model, in vivo efficacy; conditions: for tumor growth by bioluminescence and primary tumor volume: 20 mg/kg i.p.
# Experimental: RENCA-LN cells were obtained and cultured as described above. Sixty female BALB/c mice of 5 to 6 weeks were orthotopically implanted RENCA-LN cells into the left kidney (4×10^5 cells in 25 μl aliquots into the subcapsular space through a flank incision, Day 0). The mice were randomly divided into 5 groups of 12 mice each. On day 2, therapy was initiated. Animals in the vehicle control group (group 1) received 10 ml/kg Vehicle (PBS w/o Ca/Mg, 10% DMSO, 40% PEG-300) i.p. once daily until day 19. Animals of positive control group (group 2) received 40 mg/kg Sunitinib (Sutent®) p.o. once daily until day 20. Animals of treatment group 3 and 4 received 20 mg/kg of 3 once daily and every other day respectively (i.p.). Animals of treatment group 5 received 20 mg/kg of 5 once daily (i.p.). Due to partial weight loss, therapy in Groups 3 and 5 was suspended on days 11 and 12 and stopped on day 17. On day 20, the study was terminated and a necropsy performed. All animals were weighted, anaesthetised by isoflurane and killed by exsanguination. Two animals in group 1 were found dead on day 19 and 1 animal in group 3 and 5 on day 11 and 9 respectively. At necropsy, primary tumor weight and volume, lung weight and number of lung metastases were determined. Primary tumor tissues were collected and divided into two parts. One part of each tumor was snap-frozen in liquid nitrogen and stored at −80° C. whereas the other part was analyzed via ex vivo bioluminescence imaging. During the course of the study, the growth of the orthotopically implanted RENCA tumors was monitored on days 7, 14 and 19 using in vivo bioluminescence imaging. For this purpose, luciferin was injected intraperitoneally (i.p.) into the mice and light emission was measured post injection (10 min) using a NightOWL LB 981 bioluminescence imaging system (Berthold Technologies, Germany). The migration of RENCA tumor cells into the lung (metastasis) was analyzed post necropsy by counting nodules and using the luciferase assay. For this purpose, lungs were collected, homogenized, and assayed for luciferase activity using the kit from Promega (E1501) according to the manufacturer's instructions. Protein concentrations were determined using a Bradford assay and used to normalize luciferase activities (except for the primary tumor). A histological examination of the tumor vasculature was performed. For this purpose, cryosections of primary tumor tissues (thickness=5-10 μm) from the snap-frozen portion of the organ and blood vessels were visualized by immunohistochemical staining for CD 31 (PECAM-1; PharMingen, San Diego, Calif.). […] Statistical analysis of efficacy data was done using the Mann Whitney test.
# [6] = solubility in aqueous buffers; type: physicochemical; conditions: compared with 5
# Source text: as §1
# [7] = biological target: MEK1 (Homo sapiens, UniProt Q02750); conditions: cited from earlier work
# MEK1, sequence (Q02750 whole entry): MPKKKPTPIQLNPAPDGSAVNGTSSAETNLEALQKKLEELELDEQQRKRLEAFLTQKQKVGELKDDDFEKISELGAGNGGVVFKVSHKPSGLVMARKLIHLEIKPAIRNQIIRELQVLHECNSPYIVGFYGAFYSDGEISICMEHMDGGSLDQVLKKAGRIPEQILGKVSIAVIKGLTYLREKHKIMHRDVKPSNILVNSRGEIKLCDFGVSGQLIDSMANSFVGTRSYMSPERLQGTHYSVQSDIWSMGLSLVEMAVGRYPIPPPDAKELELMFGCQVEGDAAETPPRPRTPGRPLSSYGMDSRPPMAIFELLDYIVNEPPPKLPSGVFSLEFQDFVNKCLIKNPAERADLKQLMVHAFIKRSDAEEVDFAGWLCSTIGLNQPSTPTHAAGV
# [8] = isomerization of the enone under acid deprotection conditions; type: physicochemical; conditions: prolonged reaction times
# Source text: The synthesis commenced with the straightforward conversion of ester 5 into fluoroenal 7 via aldehyde 6 relying on a Horner-Wadsworth-Emmons reaction with triethyl 2-fluoro-2-phosphonoacetate to install the desired E-fluoroenoal (FIG. 19). Reaction of aldehyde 7 with […] afforded the desired alcohol as a 1:1 diasteromeric mixture which was reduced to the cis-alkene using Lindlar's catalyst (H2, Pd/CaCO3) to afford compound 9. As the hydroxyl group will ultimately be oxidized to the ketone, the lack of selectivity is inconsequential. Benzoyl protection of alcohol 9 thus afforded 10 wherein the terminal OPMB was converted to an iodide 11 (DDQ; I2, PPh3, imidazole). Attempts to engage this compound in alkylation chemistry with a phenol led to rapid elimination of the iodide to give a conjugated triene (product not shown). To circumvent this elimination which was thought to be facilitated by the presence of the alkene, compound 10 was dihydroxylated (2.5:1 dr in favor of the desired isomer 12) and converted to acetonide 13. Conversion of the terminal protected PMB ether into an iodide afforded the key intermediate 14. Following previously established chemistry, fragment 14 was coupled to the aromatic moiety 15 bearing a benzylic selenide by alkylation followed by oxidation/elimination of the selenide to afford 17. […]
# [9] = biological target: T1, VEGFR2 (Homo sapiens, UniProt P35968); assay: biochemical inhibition of VEGF-R2; conditions: FIG. 20
# T1 sequence (P35968 20-1356, species assumed): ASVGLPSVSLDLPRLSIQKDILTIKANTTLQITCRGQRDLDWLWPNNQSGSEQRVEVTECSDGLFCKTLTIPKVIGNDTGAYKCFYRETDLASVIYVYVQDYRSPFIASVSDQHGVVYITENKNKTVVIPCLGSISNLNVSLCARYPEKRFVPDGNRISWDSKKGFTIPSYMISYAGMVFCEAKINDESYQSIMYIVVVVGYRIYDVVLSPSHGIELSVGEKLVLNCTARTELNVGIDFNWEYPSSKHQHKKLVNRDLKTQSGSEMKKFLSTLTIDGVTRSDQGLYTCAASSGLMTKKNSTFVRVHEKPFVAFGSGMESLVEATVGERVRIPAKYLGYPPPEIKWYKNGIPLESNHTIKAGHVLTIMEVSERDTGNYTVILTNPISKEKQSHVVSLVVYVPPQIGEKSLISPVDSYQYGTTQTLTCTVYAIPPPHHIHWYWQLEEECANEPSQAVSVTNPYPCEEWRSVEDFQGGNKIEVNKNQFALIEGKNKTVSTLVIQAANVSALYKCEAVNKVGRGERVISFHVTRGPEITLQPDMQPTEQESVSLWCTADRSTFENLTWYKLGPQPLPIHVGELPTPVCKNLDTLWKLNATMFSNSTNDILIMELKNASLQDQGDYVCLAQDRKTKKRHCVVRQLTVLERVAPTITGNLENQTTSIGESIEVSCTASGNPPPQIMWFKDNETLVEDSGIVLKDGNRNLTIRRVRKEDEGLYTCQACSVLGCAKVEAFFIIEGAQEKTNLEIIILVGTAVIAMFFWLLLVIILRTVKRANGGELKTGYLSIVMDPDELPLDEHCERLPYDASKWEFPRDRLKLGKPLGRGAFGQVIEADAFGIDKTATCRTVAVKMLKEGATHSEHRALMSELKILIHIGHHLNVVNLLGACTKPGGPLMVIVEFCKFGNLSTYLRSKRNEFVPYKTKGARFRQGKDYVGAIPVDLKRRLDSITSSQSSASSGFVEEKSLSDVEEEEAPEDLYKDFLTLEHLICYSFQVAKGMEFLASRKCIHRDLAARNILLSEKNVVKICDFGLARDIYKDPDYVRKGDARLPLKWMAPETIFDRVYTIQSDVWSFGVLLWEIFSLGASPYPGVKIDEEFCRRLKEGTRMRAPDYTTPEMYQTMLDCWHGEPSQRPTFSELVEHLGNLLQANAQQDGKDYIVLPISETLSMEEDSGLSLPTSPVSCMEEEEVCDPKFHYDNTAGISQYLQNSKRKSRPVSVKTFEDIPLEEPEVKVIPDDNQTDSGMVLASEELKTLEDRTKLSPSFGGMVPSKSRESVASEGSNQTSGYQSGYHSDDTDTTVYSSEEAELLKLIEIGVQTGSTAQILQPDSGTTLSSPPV
# Experimental: It should be noted that as these compounds are expected to be irreversible inhibitors, the measured IC50 will depend on the procedure used and caution should be applied in comparing data from experiments performed under different conditions. To obtain a value which best reflects the rate of inactivation, the substrate and inhibitor were added simultaneously to the kinase solution. The data is shown in FIG. 9 (kinases have been ranked from the highest to least inhibited). As evident from FIG. 9, there is very little difference in relative selectivity of kinase inhibition throughout the library under these conditions. […] Overall, the trend of structure activity relationship which emerged from this screen is that the chiral methyl group at the ester position, while not essential, does provide higher activity (entry 6 vs. 10, 7 vs. 11 and 8 vs. 12). Substitution at the adjacent position with a hydroxyl group (entry 14 vs. 7) or at the β-position of the enone with a methyl abrogated activity (15-19). […] The trend of activity for the three natural products can be ranked as follows: alkene=epoxide>alkane. […] The two modifications of R^2 tested were beneficial in certain combinations. For example, the extra hydroxyl group present in fragment i does afford a significant (10 fold) gain of activity (8 vs. 7) in combination with fragment a. […]
# [10] = biological target: T1, VEGFR2; assay: cellular inhibition of VEGFR2; type: cell-based; conditions: triplicate
# Experimental: FIG. 21. […] Assays were performed in triplicate.
# To gage the undiscriminate reactivity of these enone resorcylic acids with thiols, fluoroenone 2 and the parent analogue lacking the fluoride were treated with one equivalent of DTT (2 mM) as a prototypical thiol nucleophile in PBS (pH 7.4) containing 1% DMSO. […] With fluoroenone 1 and 2 in hand, we tested their efficacy against VEGF-R2 which was frequently found to be the most inhibited kinase in our profile of cis-enone resorcylic acid library (Dakas, P. Y., et al. (2007) Angew. Chem. Int. Ed. Engl. 46, 6899-902; Jogireddy, R., et al. (2009) Chem. Eur. J. 15, 11498-506) and KIT which represents a less inhibited kinase. […] Their cellular activity against VEGF-R2 did parallel the biochemical activity. […] During the course of our investigation, a similar modification was reported by researchers from Esai (Du, H., et al. (2009) Bioorg. Med. Chem. Lett. 19, 6196-9) however, their medicinal chemistry efforts focused the inhibition of inflammation related pathways (MEKs and their down-stream regulatory effect on cytokines) (Du, H., et al. (2009) Bioorg. Med. Chem. Lett. 19, 6196-9; Goto, M., et al. (2009) J. Pharmacol. Exp. Ther. 331, 485-95). […]
# [11] = reactivity with DTT as prototypical thiol nucleophile; type: physicochemical; conditions: one equivalent of DTT (2 mM), PBS pH 7.4, 1% DMSO
# Experimental: To gage the undiscriminate reactivity of these enone resorcylic acids with thiols, fluoroenone 2 and the parent analogue lacking the fluoride were treated with one equivalent of DTT (2 mM) as a prototypical thiol nucleophile in PBS (pH 7.4) containing 1% DMSO. […] With fluoroenone 1 and 2 in hand, we tested their efficacy against VEGF-R2 which was frequently found to be the most inhibited kinase in our profile of cis-enone resorcylic acid library (Dakas, P. Y., et al. (2007) Angew. Chem. Int. Ed. Engl. 46, 6899-902; Jogireddy, R., et al. (2009) Chem. Eur. J. 15, 11498-506) and KIT which represents a less inhibited kinase. […] Their cellular activity against VEGF-R2 did parallel the biochemical activity. […] During the course of our investigation, a similar modification was reported by researchers from Esai (Du, H., et al. (2009) Bioorg. Med. Chem. Lett. 19, 6196-9) however, their medicinal chemistry efforts focused the inhibition of inflammation related pathways (MEKs and their down-stream regulatory effect on cytokines) (Du, H., et al. (2009) Bioorg. Med. Chem. Lett. 19, 6196-9; Goto, M., et al. (2009) J. Pharmacol. Exp. Ther. 331, 485-95). […] It was further shown that the addition of a methyl substituent at the δ position to the enone enhanced the metabolic stability with a tolerable loss of activity (10 fold) (Du, H., et al. (2009) Bioorg. Med. Chem. Lett. 19, 6196-9). […]
# [12] = in vivo; cited from earlier work
# [13] = system: colon and lung tumors; conditions: mice bearing colon and lung tumors; cited from earlier work
# [14] = biological target: ERK2 (Homo sapiens, UniProt P28482); conditions: covalent Michael adduct with cys166; cited from earlier work
# ERK2, sequence (P28482 whole entry, species assumed): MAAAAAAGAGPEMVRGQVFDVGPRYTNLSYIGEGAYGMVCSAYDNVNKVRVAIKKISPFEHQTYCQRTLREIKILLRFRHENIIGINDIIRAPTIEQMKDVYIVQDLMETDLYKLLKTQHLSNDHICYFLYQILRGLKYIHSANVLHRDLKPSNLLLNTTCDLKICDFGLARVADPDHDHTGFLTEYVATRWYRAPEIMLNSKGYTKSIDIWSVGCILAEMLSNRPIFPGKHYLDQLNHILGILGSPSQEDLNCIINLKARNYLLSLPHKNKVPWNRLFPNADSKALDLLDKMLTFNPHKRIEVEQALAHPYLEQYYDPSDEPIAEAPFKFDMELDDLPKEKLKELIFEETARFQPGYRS
compound,measurement,setting,value
C[C@H]1C/C=C\C(=O)[C@@H](O)[C@@H](O)CCOc2cc(O)cc(O)c2C(=O)O1 [1agh],plasma half-life,[1],short plasma half life
same,efficacy in inhibiting renal carcinoma cell line compared with natural product LL Z-1640-2,[2]; FIG. 14,as effective as the natural product
same,IC50,"[2]; Mus musculus, Renca, FIG. 12, read-out: IC50, renal carcinoma line (RENCA)",100 to 500 nM
same,inhibition of VEGFRs in kinase profile,[3],strongly inhibited
same,tolerability,[4]; 25 mg/kg,tolerated
same,toxicity at high dose,[4]; 75 mg/kg,systemic toxicity
same,"tumor vasculature histology (CD-31 staining), angiogenesis","[5]; 20 mg, q1d",strong inhibition of angiogenesis
same,tumor growth in mice,[5]; 20 and 10 mg/kg,clear reduction in tumor growth
same,tumor growth by bioluminescence and primary tumor volume,[5]; administered every other day,marginal decrease activity
same,animal weights decrease,"[5]; between day 2 and day 5, q1d",8%
same,lung metastasis (metastatic nodules),"[5]; compared with untreated group, lungs inspected at termination",A similar result
same,tumor growth by bioluminescence and primary tumor volume,[5]; daily dosing,highly significant reduction of tumor growth
same,luciferase activity from lung homogenates,"[5]; ex vivo, compared with untreated group",A similar result
same,solubility in aqueous buffers,[6],notably more soluble in aqueous buffers than 5
CCNc1cc(O)c2c(c1)/C=C/C[C@H](O)[C@H](O)C(=O)/C=C\[C@@H](C)[C@H](C)OC2=O [E6201],selectivity for MEK1 relatively to PDGFRβ,[7],> 200 fold
C[C@H]1C/C=C(/F)C(=O)[C@@H](O)[C@@H](O)C/C=C/c2cc(O)cc(O)c2C(=O)O1 [fluoroenone 1],isomerization (epimerization) of the fluoroenone,[8],no trace of isomerization was observed
same,IC50,[9],6.8 nM
same,IC50,[10],17 nM
C[C@H]1C/C=C(/F)C(=O)[C@@H](O)[C@@H](O)CCOc2cc(O)cc(O)c2C(=O)O1 [fluoroenone 2],IC50,[9],60.5 nM
same,reactivity with DTT compared with parent analogue lacking the fluoride,[11],reacting slower
COc1cc(O)c2c(c1)[C@H]1O[C@@H]1C[C@H](O)[C@H](O)C(=O)/C=C\C[C@H](C)OC2=O [hypothemycin],efficacy in animal models,[12],effective in animal models
same,tumor growth inhibition,[13],only modest growth inhibition
same,inactivation of ERK2,[14],irreversibly inactivates ERK2
